Reference: a melting point compilation (Tetko et al.; mined from patent text by program, amines drawn as free bases though some values may be those of a salt)

With `O=c1[nH]c2cc(Cl)cc(Cl)c2c(=O)n1Cc1cccc(F)c1` as the compound, how does the melting point read?
The melting point was 267 to 270 °C.

For `CC1CCN(C(C#N)C2(c3ccc(Cl)c(Cl)c3)CCC2)CC1` (centres undefined), which melting point is on record?
The melting point was 76 to 78 °C.

With `CCCCC(CC)C(=O)C=P(c1ccccc1)(c1ccccc1)c1ccccc1` (centres undefined) as the compound, how does the melting point read?
The melting point was 106 to 108 °C.

With `COc1ccc2c(Cl)cc(-n3cccn3)nc2c1` as the compound, how does the melting point read?
The melting point was 80 °C.

With `CCOC(=O)[C@@H]1CCCN1C(=O)C1=Cc2ccccc2CC1` as the compound, how does the melting point read?
Its melting point is 55 to 57 °C.

With `CCn1c(=O)c2c(nc(/C=C/c3ccc(OCCCCN)cc3)n2C)n(CC)c1=O` as the compound, how does the melting point read?
The melting point was 212 to 214 °C.

For `CC[C@@H](C(N)=O)n1nnc2cc(Br)ccc21`, which melting point is on record?
The melting point was 205 to 207 °C.

For `O=c1[nH]nc(-c2ccc(Cl)cc2)o1`, which melting point is on record?
Its melting point is 125 to 127 °C.

Which melting point does the source give for `O=C1SC(Cc2ccc(OCCn3ccc4cccnc43)cc2)C(=O)N1C(c1ccccc1)(c1ccccc1)c1ccccc1` (centres undefined) here?
The melting point was 168 to 169 °C.

For `CCNC(=O)/C=C(C)/C=C/C(F)=C(C)/C=C/c1c(C)sc(C)c1C`, which melting point is on record?
The melting point was 167 to 171 °C.

Which melting point does the source give for `O=[N+]([O-])c1c(-c2cc(Cl)cc(Cl)c2)[nH]c2c(Cl)cc(Cl)cc12` here?
The melting point was 272 to 273 °C.

For `CC(=O)Oc1c(C)sc2ccc(C(F)(F)F)cc12`, which melting point is on record?
Its melting point is 59 to 60 °C.

Which melting point does the source give for `CC1CC2=CC(=O)CCC2C2CCC3(C)C(C=O)CCC3C12` (centres undefined) here?
Its melting point is 207 to 230 °C.

Which melting point does the source give for `O=[N+]([O-])c1ccc(F)nc1Nc1ccc2c(c1)OCO2` here?
The melting point was 161 to 162 °C.

With `COc1cc(C(=O)N2CCCC2CO)c([N+](=O)[O-])cc1OC` (centres undefined) as the compound, how does the melting point read?
Its melting point is 124 to 128 °C.

Which melting point does the source give for `CCCCCC(C)C(C)c1cc(OC)c2c(c1)OC(C)(C)C1=C2CN(C(N)=NO)CC1` (centres undefined) here?
The melting point was 176 to 178 °C.

For `CC(C)Oc1ccc(/C=C/C=C/CO)cc1`, which melting point is on record?
Its melting point is 91 to 92 °C.

With `CC(C)(C)c1cc(I)c2c(c1)CNC1(CCSCC1)O2` as the compound, how does the melting point read?
The melting point was 123 to 124 °C.

Which melting point does the source give for `CC(C)(C)c1cc(OC(=O)N2CC(O)C2)cc(C(C)(C)C)c1` here?
The melting point was 166 to 170 °C.

For `CC(C)(C)n1cc(-c2ccc(I)cc2)c(C#N)c1N`, which melting point is on record?
The melting point was 166 to 167 °C.

Which melting point does the source give for `Fc1cc(Cl)c(Br)c(Cl)c1` here?
Its melting point is 83 °C.

With `COc1ccc(C[C@H](CC(=O)N2CCOCC2)C(=O)OCc2ccccc2)cc1` as the compound, how does the melting point read?
Its melting point is 77 to 79 °C.

For `Cc1cc(SC2CC(=O)N(C)C2=O)cc(C(C)(C)C)c1N` (centres undefined), which melting point is on record?
The melting point was 92 to 94 °C.

Which melting point does the source give for `Cc1cc2c3c(c1)[nH]c(=O)n3CC(C)NC2` (centres undefined) here?
The melting point was 199 °C.

Which melting point does the source give for `C=CCOc1c(OC)cc([C@H]2CC[C@H](c3cc(OC)c(OC)c(OC)c3)O2)cc1S(C)(=O)=O` (relative stereo) here?
The melting point was 97 to 98 °C.

For `N#CCNC(=O)C1(NC(=O)c2ccc(N3CCN(Cc4ccccc4)CC3)cc2)CCCCC1`, which melting point is on record?
Its melting point is 210 to 212 °C.

With `O=S(Cc1ccc(Cl)c(Cl)c1)c1nc2cnccc2[nH]1` (centres undefined) as the compound, how does the melting point read?
Its melting point is 198 to 201 °C.

With `CCOCc1cc(O)cc2cc(-c3ccc(O)cc3)oc12` as the compound, how does the melting point read?
Its melting point is 166 to 168 °C.

With `CC(=O)c1c(C)nc(C)nc1NCc1ccc(-c2ccccc2-c2nnnn2C(C)(C)C)cc1` as the compound, how does the melting point read?
The melting point was 131 to 132 °C.

With `CC(=O)Nc1ccc(C#Cc2c(F)c(F)nc(F)c2F)cc1` as the compound, how does the melting point read?
The melting point was 189 to 190 °C.

With `Clc1ccc(CCCN2CCc3cc(OC[C@H]4CO[C@](Cn5ccnc5)(c5ccc(Cl)cc5)O4)ccc3C2)cc1` (racemic) as the compound, how does the melting point read?
The melting point was 101 to 103 °C.

Which melting point does the source give for `O=CC1c2cccc(Cl)c2C(C=O)c2cccc(Cl)c21` (centres undefined) here?
The melting point was 160 to 172 °C.

Which melting point does the source give for `Cc1nnn2c1CO[C@H]1CN(C(=O)OC(C)(C)C)C[C@@H]12` here?
Its melting point is 195 to 196 °C.

Which melting point does the source give for `CC(C)C[C@H](NC(=O)OCc1ccccc1)C(=O)N[C@@H](Cc1ccccc1)C(=O)CSCc1ccccc1` here?
The melting point was 86 to 87 °C.

For `CCOC(=O)c1csc(NC(=O)c2cccc(C#N)c2)n1`, which melting point is on record?
Its melting point is 203 to 204 °C.

Which melting point does the source give for `O=C1NC(C(=O)NCCO[N+](=O)[O-])C(c2ccc(Cl)cc2)S1` (centres undefined) here?
The melting point was 125 to 127 °C.

For `CCN(C(=O)N1CCN(c2ccccc2OC)CC1)c1cc(C)c(C)nc1OC`, which melting point is on record?
The melting point was 112 to 113 °C.

Which melting point does the source give for `CCNC(=S)NS(=O)(=O)N1CCC(CCNC(=O)c2cc(Cl)ccc2OC)CC1` here?
The melting point was 138 to 140 °C.

For `O=C1CCCCCCCCCCC(O)CCCO1` (centres undefined), which melting point is on record?
Its melting point is 59 to 61 °C.

With `CCc1nc2c(N)nc3cccnc3c2n1CC1(O)CCN(C(=O)N2CCOCC2)CC1` as the compound, how does the melting point read?
The melting point was over 255 °C.

With `O=C(O)CCc1ccccc1C(=O)NCCc1ccccc1` as the compound, how does the melting point read?
Its melting point is 106 to 108 °C.

With `CCc1cc2[nH]c(=O)c(=O)[nH]c2cc1CC` as the compound, how does the melting point read?
Its melting point is over 360 °C.

With `COc1ccc(/C=C(\C#N)c2c(F)c(F)c(F)c(F)c2F)cc1OC1CCCC1` as the compound, how does the melting point read?
The melting point was 94.5 to 96 °C.

With `O=[N+]([O-])c1cccc(-c2cc3ncnc(Nc4ccc5[nH]ccc5c4)c3s2)c1` as the compound, how does the melting point read?
The melting point was 175 to 183 °C.

For `COc1ccc(O)c(NC(C)=O)c1`, which melting point is on record?
Its melting point is 156 to 157 °C.

Which melting point does the source give for `O=c1[nH]c(NCCSCc2ccco2)ncc1Cc1cccnc1` here?
Its melting point is 136 to 139 °C.

With `COc1ccccc1OC(=O)CNC(=O)C(C)SC(=O)c1cccs1` (centres undefined) as the compound, how does the melting point read?
The melting point was 90.5 to 92 °C.

For `CCn1c(CO)nc2cccnc21`, which melting point is on record?
The melting point was 117 to 121 °C.

For `CC(C)(CS(C)(=O)=O)NC(=O)c1c(I)cccc1C(=O)Nc1ccc(S(F)(F)(F)(F)F)cc1Cl`, which melting point is on record?
The melting point was 196 to 198 °C.

For `CCOC(C)COC1CCNCC1` (centres undefined), which melting point is on record?
The melting point was 68 to 70 °C.

For `Cc1c(N2CCOCC2)c(F)cc2c(=O)c(C(=O)O)cn(C3CC3)c12`, which melting point is on record?
The melting point was 228 °C.

Which melting point does the source give for `Nc1ccccc1C(=O)c1ccncc1` here?
Its melting point is 153 to 161 °C.

With `COC(=O)C1=C(C)NC(C)=C(C(=O)OC)C1c1cc([N+](=O)[O-])ccc1OCCNCC(O)c1ccccc1` (centres undefined) as the compound, how does the melting point read?
The melting point was 135 to 137 °C.

Which melting point does the source give for `Nc1ncc(C(=O)NCc2ccc(C(F)(F)F)cc2)c(N2CCCC2)n1` here?
The melting point was 227 to 228 °C.

For `FC(F)(F)c1ccc(-c2ncc(CCl)s2)cc1`, which melting point is on record?
The melting point was 55 to 57 °C.

Which melting point does the source give for `CC(C)(CO)NC(=O)c1n[nH]cc1NC(=O)c1ccccn1` here?
Its melting point is 193 to 195 °C.

Which melting point does the source give for `O=C(NC1=Cc2cncn2CN=C1)c1ccccc1` here?
The melting point was 158 to 160 °C.

For `Fc1cc(F)cc(-c2nc(-c3ccccn3)no2)c1`, which melting point is on record?
The melting point was 115 to 119 °C.

Which melting point does the source give for `COC1(C=Cc2ccc(C=O)cc2)OOCCOO1` here?
Its melting point is 95 to 97 °C.

Which melting point does the source give for `O=C1NC(=O)C(Sc2ccc(Br)cc2)S1` (centres undefined) here?
Its melting point is 115 to 117 °C.

Which melting point does the source give for `OCc1cc(OCc2ccccc2)nn1-c1ccccc1` here?
Its melting point is 87 to 88 °C.

With `[O-][N+]1=Cc2cccc3c2C(C1)c1ccccc1CC3` (centres undefined) as the compound, how does the melting point read?
The melting point was 156 to 158 °C.

Which melting point does the source give for `O=C(O)c1cn(-c2ccc(F)cc2)c2c(F)c(N3CC4=C(CNC4)C3)c(F)cc2c1=O` here?
The melting point was 195 to 198 °C.

With `Cc1coc(C)c1C(=O)OC1CC(C)(C)N(CC#N)C(C)(C)C1` as the compound, how does the melting point read?
Its melting point is 156 °C.

For `Cc1c(F)cccc1C(=O)Nc1ccc(C(=O)N2CCCC(=O)c3sccc32)cc1`, which melting point is on record?
The melting point was 200 to 202 °C.

Which melting point does the source give for `CC(C)CCNCCOc1ccc2ccccc2c1` here?
The melting point was 91 °C.

For `N#Cc1nn(-c2c(Cl)cc(C(F)(F)F)cc2Cl)c(F)c1S(=O)(=O)C(F)(F)F`, which melting point is on record?
The melting point was 95 to 98 °C.

For `OC(CCCN1CC=C(c2ccccc2)CC1)c1ccc(Cc2ccc(Cl)cc2)cc1` (centres undefined), which melting point is on record?
The melting point was 108 to 111 °C.

For `COc1ccc(N2CCN(C=C3C(=O)Nc4cc(OC)c(OC)cc43)CC2)cc1OC`, which melting point is on record?
Its melting point is 193 to 195 °C.

With `CCN(C(=O)C(C)(C)C)c1ccc(F)cc1F` as the compound, how does the melting point read?
The melting point was 69 to 71 °C.

For `O=C(O)c1ccc(-c2c([N+](=O)[O-])oc3c2ccc2ccccc23)cc1`, which melting point is on record?
The melting point was over 300 °C.

With `CCCN1CCN(c2cccc3ccc(NC(=O)c4ccc(Cl)cc4)cc23)CC1` as the compound, how does the melting point read?
Its melting point is 130 to 132 °C.

With `Clc1cc(N2CCOCC2)nc(-n2cnc3ccccc32)n1` as the compound, how does the melting point read?
Its melting point is 178 to 181 °C.

With `O=C(Cc1cc(C(F)(F)F)cc(C(F)(F)F)c1)N1CCN(C(=O)CNC2CCN(Cc3ccccc3)CC2)C(c2ccccc2)C1` (centres undefined) as the compound, how does the melting point read?
The melting point was 49 to 52 °C.
